Like-named read-outs stand apart in the source and are kept apart here.
Assays:
W2 strain = assay: parasite proliferation assay in infected red blood cells (SYBR Green I), W2 strain; assay type: cell-based
Description: Compounds of the invention can be assayed to measure their capacity to inhibit proliferation of parasitemia in infected red blood cells. The proliferation is quantified by the addition of SYBR Green I (INVITROGEN)® dye which has a high affinity for double stranded DNA.

3D7 P. falciparum strain = assay: parasite proliferation assay in infected red blood cells (SYBR Green I); assay type: cell-based, Plasmodium falciparum; conditions: 3D7 strain, read-out: EC50 3D7 strain
Summary of the method: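 P. falciparum 3D7 grown in O+ human erythrocytes to 3–8% parasitemia and exposed to compounds. Proliferation read as the increase in parasite DNA. Detection used SYBR Green I in saponin/triton-X/EDTA lysis buffer, with overnight lysis at room temperature.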

[1] = Plasmodium falciparum, 3D7, Erythrocyte
[2] = Plasmodium falciparum, Erythrocyte

Compound | EC50 (W2 strain; Erythrocyte) [nM] | EC50 (3D7 P. falciparum strain; [1]) [nM] | EC50 (W2 strain; [2]) [nM] | EC50 (W2 strain) [nM] | EC50 (3D7 P. falciparum strain) [nM]
Cc1ccc(Nc2c(-c3ccc(F)cc3)nc3n2CCN(C(=O)[C@@H](N)CCCCN)C3)cc1 [Compound 156] | 458 | 1830 |  |  | 
CCCC(=O)NCc1ccc(C[C@H](N)C(=O)N2CCn3c(nc(-c4ccc(F)cc4)c3Nc3ccc(C)cc3)C2)cc1 [Compound 218] | 4010 | 4710 |  |  | 
Cc1ccc(Nc2c(-c3ccc(F)cc3)nc3n2CCN(C(=O)C(O)c2ccccc2Cl)C3)cc1 (centres unmarked) [Compound 131] | 30 | 40 |  |  | 
CC(C)[C@@H]1c2nc(-c3ccc(F)cc3)c(Nc3ccc(Cl)c(F)c3)n2CCN1C(=O)CN [Compound 602] |  | 170 | 204 |  | 
CC1(C)CN(C(=O)CN)Cc2nc(-c3cccc(F)c3)c(Nc3ccc(F)cc3)n21 [Compound 621] |  | 40 | 45 |  | 
CC(=O)NCCCCNCC(=O)N1CCn2c(nc(-c3ccc(F)cc3)c2Nc2ccc(C)cc2)C1 [Compound 154] | 3410 | 4270 |  |  | 
CC1(C)c2nc(-c3ccc(F)cc3)c([S+]([O-])c3ccc(F)c(F)c3)n2CCN1C(=O)CN (centres unmarked) [Compound 723] |  | 89 | 68 |  | 
CC(C)(N)C(=O)N1CCn2c(nc(-c3c(F)cc(F)cc3F)c2Nc2ccc(F)cc2)C1 [Compound 12] | 2960 | 7400 |  |  | 
CC1(C)c2nc(-c3ccc(F)cc3)c(C(=O)Nc3ccc(F)cc3)n2CCN1C(=O)CN [Compound 708] |  | 809 | 1130 |  | 
Cc1ccc(Nc2c(-c3ccc(F)cc3)nc3n2CCN(C(=O)C(C)(C)Nc2ccc(C)cc2)C3)cc1 [Compound 386] | 3030 | 2620 |  |  | 
Cc1ccc(Nc2c(-c3ccc(F)cc3)nc3n2CCN(C(=O)N2CCC(N4CCCCC4)CC2)C3)cc1 [Compound 274] | 5670 | 5140 |  |  | 
O=C([C@H]1CCCO1)N1CCn2c(nc(-c3ccc(F)cc3)c2Nc2ccc(Cl)c(F)c2)C1 [Compound 356] | 872 | 1260 |  |  | 
Cc1ccc(Nc2c(-c3ccc(F)cc3)nc3cnccn23)cc1 [Example 136, 2-(4-fluorophenyl)-N-p-tolylimidazo[1,2-a]pyrazin-3-amine] | 2690 | 2020 |  |  | 
Cc1ccc(Nc2c(-c3ccc(F)cc3)nc3n2CCN(C(=O)[C@@H](O)CCc2ccccc2)C3)cc1 [Compound 118] | 135 | 150 |  |  | 
Cc1ccc(Nc2c(-c3ccc(F)cc3F)nc3n2CCN(C(=O)C(C)(C)N)C3)cc1 [Compound 395] | 246 | 440 |  |  | 
CC1(C)c2nc(-c3ccc(F)cc3)c(NC3CCC(F)(F)CC3)n2CCN1C(=O)CN [Compound 660] |  | 3 | 6 |  | 
N#Cc1ccc(Nc2c(-c3ccc(F)cc3)nc3n2CCN(C(=O)CN)C3)cc1 [Compound 264] | 154 | 110 |  |  | 
CC1CC(Nc2c(-c3ccc(F)cc3)nc3n2CCN(C(=O)CN)C3(C)C)CC(C)(C)C1 (centres unmarked) [Compound 666] |  | > 10000 | 4970 |  | 
CC(C)[C@@H](N)C(=O)N1CCn2c(nc(-c3ccc(F)cc3)c2Nc2ccc(Cl)c(F)c2)C1 [Compound 318] | 98 | 150 |  |  | 
Cc1ccc(Nc2c(-c3ccc(F)cc3)nc3n2CCN(C(=O)CC2CCCO2)C3)cc1 (centres unmarked) [Compound 211] | 283 | 300 |  |  | 
NCCCC(=O)N1CCn2c(nc(-c3ccc(F)cc3)c2Nc2ccc(F)cc2)C1 [Compound 18] | 8140 | 12300 |  |  | 
Cc1ccc(Nc2c(-c3ccc(F)cc3)nc3n2CCN(Cc2ccc(OCCCN(C)C)cc2)C3)cc1 [Compound 183] | 1340 | 1900 |  |  | 
CC1(C)c2nc(-c3ccc(F)cc3)c(Nc3cccc(Cl)c3)n2CCN1C(=O)CN [Compound 651] |  | 8 | 5 |  | 
Cc1ccc(Nc2c(-c3ccc(F)cc3)nc3n2CCN(C(=O)CN(CCO)CCO)C3)cc1 [Compound 161] | 510 | 540 |  |  | 
Cc1ccc(Nc2c(-c3ccc(F)cc3)nc3n2CCN(C(=O)CNC(N)=O)C3)cc1 [Compound 166] | 2230 | 2870 |  |  | 
Cc1ccc(Nc2c(-c3ccc(F)cc3)nc3n2CCN(C(=O)CNc2ccccc2)C3)cc1 [Compound 168] | 11 | 10 |  |  | 

Compound | EC50 (W2 strain; Erythrocyte) [nM] | EC50 (3D7 P. falciparum strain; [1]) [nM] | EC50 (W2 strain; [2]) [nM] | EC50 (W2 strain) [nM] | EC50 (3D7 P. falciparum strain) [nM]
O=C([C@@H]1CCN1)N1CCn2c(nc(-c3ccc(F)cc3)c2Nc2ccc(Cl)c(F)c2)C1 [Compound 321] | 11 | 20 |  |  | 
Cc1ccc(Nc2c(-c3ccc(F)cc3)nc3n2CCN(C(=O)C2(O)CC2)C3)cc1 [Compound 99] | 658 | 810 |  |  | 
Cc1ccc(Nc2c(-c3ccc(F)cc3)nc3n2CCN(C(=O)C2CCCNC2)C3)cc1 (centres unmarked) [Compound 86] |  |  |  | 755 | 710
Cc1cc(Nc2c(-c3cccc(F)c3)nc3n2CC(=O)N(CCCO)C3(C)C)ccc1F [Compound 690] |  | 866 | 760 |  | 
Cc1cc(C)cc(Nc2c(-c3ccccc3)nc3n2CCN(C(=O)CN)C3)c1 [Compound 2] | 3350 | 3480 |  |  | 
CN1Cc2nc(-c3ccc(F)cc3)c(Nc3ccc(Cl)c(F)c3)n2C(C)(C)C1 [Compound 609] |  | 7020 | 4930 |  | 
CN1CCn2c(nc(-c3ccc(F)cc3)c2Nc2ccc(F)cc2)C1(C)C [Compound 606] |  | 20 | 28 |  | 
Cc1ccc(Nc2c(-c3ccc(F)cc3)nc3n2CC(C)NC3)cc1 (centres unmarked) [Compound 329] | 116 | 150 |  |  | 
CNC(C)(C)C(=O)N1CCn2c(nc(-c3ccc(F)cc3)c2Nc2ccc(Cl)c(F)c2)C1 [Compound 320] | 103 | 170 |  |  | 
CC(C)(C)CC(C)(C)Nc1c(-c2ccccc2-c2ccco2)nc2ccccn12 [Compound 747] |  | 2230 | 4480 |  | 
NCC(=O)N1CCn2c(nc(-c3ccc(F)cc3)c2Nc2ccc(Cl)cc2)C1 [Compound 40] | 9 | 10 |  |  | 
CCCCC(=O)Nc1ccc(C[C@H](NC(=O)OC(C)(C)C)C(=O)N2CCn3c(nc(-c4cccc(F)c4)c3Nc3ccc(Cl)c(F)c3)C2)cc1 [Compound 252] | 631 | 3030 |  |  | 
Cc1ccc(Nc2c(-c3ccc(F)c(F)c3)nc3n2CCN(C(=O)[C@H](O)C(C)C)C3)cc1 [Compound 391] | 7 | 10 |  |  | 
Cc1ccc(Nc2c(-c3cccc(Cl)c3)nc3n2CCN(C(=O)C(C)(C)N)C3)cc1 [Compound 397] | 1670 | 2450 |  |  | 
Cc1ccc(Nc2c(-c3ccc(F)cc3)nc3n2CCN(C(=O)CC2CCNCC2)C3)cc1 [Compound 220] | 937 | 1130 |  |  | 
CCn1nccc1Nc1c(-c2ccc(F)cc2)nc2n1CCN(C(=O)CN)C2(C)C [Compound 601] |  | 3960 | 4120 |  | 
Cc1ccc(Nc2c(-c3ccc(F)cc3)nc3n2CCN(C(=O)[C@@H](O)c2ccccc2)C3)cc1 [Compound 138] | 15 | 10 |  |  | 
NC(C(=O)N1CCn2c(nc(-c3ccc(F)cc3)c2Nc2ccc(F)cc2)C1)C(F)(F)F (centres unmarked) [Compound 50] | 187 | 180 |  |  | 
CC(C)(N)C(=O)N1CCn2c(nc(-c3ccc(F)cc3)c2Nc2ccc3c(c2)OCO3)C1 [Compound 5] | > 8900 | 4330 |  |  | 
Cc1cc(Nc2c(-c3ccc(F)cc3)nc3n2CCN(C(=O)CN)C3(C)C)nn1C [Compound 600] |  | 70 | 50 |  | 
Cc1ccc(Nc2c(-c3ccc(F)cc3)nc3n2CCN(C(=O)C[C@@H](N)Cc2ccc(Br)cc2)C3)cc1 [Compound 171] | 214 | 170 |  |  | 
Cc1ccc(Nc2c(-c3ccc(F)cc3)nc3n2CCN(C(=O)[C@H](O)C2CCCCC2)C3)cc1 [Compound 121] | 33 | 20 |  |  | 
Cc1ccc(Nc2c(-c3ccc(F)cc3)nc3n2CCN(C(=O)[C@@H](O)C(C)(C)C)C3)cc1 [Compound 110] | 15 | 20 |  |  | 
N[C@@H](Cc1ccc(F)cc1)C(=O)N1CCn2c(nc(-c3ccc(F)cc3)c2Nc2ccc(Cl)c(F)c2)C1 [Compound 316] | 14 | 20 |  |  | 
CN1CCn2c(nc(-c3ccc(F)cc3)c2Nc2ccc(Cl)cc2)C1(C)C [Compound 607] |  | 30 | 48 |  | 
Cc1ccc(Nc2c(-c3ccc(F)cc3F)nc3n2CCNC3)cc1 [Compound 280] | 4650 | 4710 |  |  | 
